How the values were obtained:
[1] = tested on: PEO1-OR cells; assay: MTS cytotoxicity assay, sensitization to olaparib, PEO1-OR; format: cell-based
[2] = tested on: PEO4 cells; assay: MTS cytotoxicity assay, sensitization to olaparib, PEO4; format: cell-based; conditions: 30 μM, olaparib 72 hr
Method: (§1) Cells were pre-treated with 30 μM DB4 for 1 hr and then treated with various concentrations of olaparib for 72 hr. Cell survival was determined by MTS cytotoxicity assay. Data are means±SD (N=3-4). […] EOB calculation was used to quantify the synergy of the combination of DB4 and various concentrations of olaparib in PEO1 or PEO4 cells as shown in FIG. 8A. EOB>0, synergism; EOB=0, additivity; EOB<0, antagonism. […] Cells were pre-treated with 30 μM DB4-F for 1 hr and then treated with various concentrations of olaparib for 72 hr. Cell survival was determined by MTS cytotoxicity assay. Data are means±SD (N=3-4). […] EOB calculation was used to quantify the synergy of the combination of DB4-F and various concentrations of olaparib in PEO1 or PEO4 cells as shown in FIG. 8B. EOB>0, synergism; EOB=0, additivity; EOB<0, antagonism. […] Cell survival was determined by MTS cytotoxicity assay. […] Caspase 3/7 activity was expressed as RLU per μg/μl protein. […] Caspase 3/7 activity was expressed as RLU per μg/μl protein. […] Cells were treated and caspase 3/7 activity was measured as described in FIG. 8G and FIG. 8H.
(§2) It was also examined whether DB4 sensitized BRCA-wild type EOC cells to a PARP inhibitor. BRCA2-mutated PEO1 and BRCA2-wild type PEO4 cells were treated with DB4 at 30 μM in combination with various concentrations of olaparib and cell survival was determined. […]

[3] = tested on: SKOV3 cells; assay: Clonogenic assay, SKOV3; format: cell-based; conditions: DB4 at 6 μM, 14 days
Method: Cells were plated for 24 hr, pre-treated with DB4 for 1 hr, and then treated with various concentrations of olaparib for 14 days. Colonies were stained and determined for clonogenic survival.
To further substantiate the effectiveness of DB4 and mitigate the issue of off-target effects with a higher concentration range of drugs used in the MTS cytotoxicity assay, clonogenic assays were carried out to determine the long-term survival of cells in response to treatments.
The assay was conducted as described previously (Lin Z P et al., 2014, Molecular Cancer Res, 12:381-393). Cells were plated at various densities in 6-well plates in triplicate. After 24 hr of incubation, cells were treated continuously with various concentrations of olaparib, DB4, or both drugs in combination. After 12-14 days, colonies were fixed/stained with crystal violet solution and counted to determine the percentage of survival using a GelDoc imaging system with QuantityOne software (Bio-Rad, Hercules, CA).

[4] = tested on: PEO1 cells; assay: MTS cytotoxicity assay, sensitization to olaparib, PEO1; format: cell-based; conditions: 30 μM, olaparib 72 hr
Method: as §1, §2

[5] = Chemical stability of DB4: potency after pre-incubation in cell-free medium (EdU readout); format: physicochemical; conditions: pre-incubated in cell-free medium at 37° C. up to 72 hr; PEO4 cells
Method: DB4 remained mostly active and intact after 72 hr in the culture medium. The dose response curve of DB4 in DNA synthesis inhibition in PEO4 cells was generated as determined by EdU flow cytometric analysis. […] PEO4 cells were treated with these media for 24 hr. The level of DNA synthesis inhibition was determined to interpolate and calculate % DB4 remaining compared with the control at 0 hr. FIG. 5B depicts representative results for remaining DB4 after DB4 (MW=496.1) was added to the culture medium at 50 μM for 0 hr, 24 hr, 48 hr, or 72 hr at 37° C. FIG. 5C depicts representative mass spectrum obtained from mass spectrometry that was run to detect the level of the 496.13 ion at 0 hr. FIG. 5D depicts representative mass spectrum obtained from mass spectrometry that was run to detect the level of the 496.13 ion at 72 hr.
To ensure that DB4 remained chemically stable, the time course study was performed by determining the potency of DB4 following a pre-incubation in the cell-free medium at 37° C. for up to 72 hr. Cells were treated for 24 hr with the medium containing pre-incubated DB4 and DNA synthesis was determined by the EdU incorporation assay.

[6] = cited from earlier work
[7] = tested on: DNA synthesis; conditions: cited from earlier work

Row | SMILES | sensitization to olaparib (cell survival) ([1]; DB4 at 5 μM) | sensitization to olaparib (cell survival) ([1]; DB4 at 20 μM) | sensitization to olaparib (cell survival) [2] | clonogenic survival in the presence of olaparib [3] | sensitization to olaparib (cell survival) [4] | activity to inhibit DNA synthesis after pre-incubation [5] | side effects ([6]; patients) | clinical response rates ([6]; phase I/II studies) | time to halt DNA synthesis [7] [h]
1 | C=CCn1c(SCc2cccc(Cl)c2)nnc1C1CCN(Cc2nc3ccccc3s2)CC1 [DB4, 2-[(4-{4-allyl-5-[(3-chlorobenzyl)thio]-4H-1,2,4-triazol-3-yl}-1-piperidinyl)methyl]-1,3-benzothiazole] | partially sensitized | near-fully sensitized | effectively sensitized | effectively reduced the clonogenic survival | minimal effects | more than 82% | – | – | –
2 | NC(=S)NN=Cc1ncccc1N [triapine, 3-aminopyridine-2-carboxaldehyde-thiosemicarbazone, reference compound] | – | – | – | – | – | – | methemoglobinemia and dyspnea | more than 80% | ≤ 1

From patent US20240239786A1, “COMPOSITIONS AND METHODS FOR THE TREATMENT AND PREVENTION OF CANCER” (Yale University, priority 2021, published 2024)
